Measurements from patent US20260262643A1, “HERBICIDAL BENZOXAZINES” (FMC CORPORATION, priority 2022, published 2026).
Read-outs that look alike come from different tables or passages of the source.

Assays:
[1] = test system: blackgrass; assay: Test A preemergence; type: in vivo, Alopecurus myosuroides; settings: Alopecurus myosuroides, pre-emergence, 240 h, read-out: Plant response rating, Blackgrass; for pest or weed control at 125 g/ha: 125 g ai/ha; for pest or weed control at 500 g/ha: 500 g ai/ha
Procedure, shortened: (§1)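 Weeds and crops in loam–sand blend were sprayed preemergence onto soil or postemergence at 2–10 cm (one- to two-leaf stage). Test chemicals were in a non-phytotoxic solvent with surfactant. After 10 days in the greenhouse, injury was rated visually against untreated controls on a 0 (no effect) to 100 (complete control) scale.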

[2] = test system: goosegrass; assay: Test A preemergence; type: in vivo, Eleusine indica; settings: Eleusine indica, pre-emergence, 240 h, read-out: Plant response rating, Goosegrass; for pest or weed control at 125 g/ha: 125 g ai/ha; for pest or weed control at 500 g/ha: 500 g ai/ha
Procedure, shortened: as §1

[3] = test system: kochia; assay: Test A preemergence; type: in vivo, Bassia scoparia; settings: Bassia scoparia, pre-emergence, 240 h, read-out: Plant response rating, Kochia; for pest or weed control at 125 g/ha: 125 g ai/ha; for pest or weed control at 500 g/ha: 500 g ai/ha
Procedure, shortened: as §1

[4] = test system: oat, wild; assay: Test A preemergence; type: in vivo, Avena fatua; settings: Avena fatua, pre-emergence, 240 h, read-out: Plant response rating, Oat, Wild; for pest or weed control at 125 g/ha: 125 g ai/ha; for pest or weed control at 500 g/ha: 500 g ai/ha
Procedure, shortened: as §1

[5] = test system: soybean; assay: Test A preemergence; type: in vivo, Glycine max; settings: Glycine max, pre-emergence, 240 h, read-out: Plant response rating, Soybean; for plant injury at 125 g/ha: 125 g ai/ha; for plant injury at 500 g/ha: 500 g ai/ha
Procedure, shortened: as §1

[6] = test system: blackgrass; assay: Test A postemergence; type: in vivo, Alopecurus myosuroides; settings: Alopecurus myosuroides, post-emergence, 240 h, postemergence, 10 days, 0 to 100 scale (0 no effect, 100 complete control); for pest or weed control at 125 g/ha: 125 g ai/ha, read-out: Blackgrass plant response rating; for pest or weed control at 500 g/ha: 500 g ai/ha, visual injury, read-out: Plant response rating, Blackgrass
Procedure, shortened: as §1

[7] = test system: goosegrass; assay: Test A postemergence; type: in vivo, Eleusine indica; settings: Eleusine indica, post-emergence, 240 h, postemergence, 10 days, 0 to 100 scale (0 no effect, 100 complete control); for pest or weed control at 125 g/ha: 125 g ai/ha, read-out: Goosegrass plant response rating; for pest or weed control at 500 g/ha: 500 g ai/ha, visual injury, read-out: Plant response rating, Goosegrass
Procedure, shortened: as §1

[8] = test system: oat, wild; assay: Test A postemergence; type: in vivo, Avena fatua; settings: Avena fatua, post-emergence, 240 h, postemergence, 10 days, 0 to 100 scale (0 no effect, 100 complete control); for pest or weed control at 125 g/ha: 125 g ai/ha, read-out: Oat, Wild plant response rating; for pest or weed control at 500 g/ha: 500 g ai/ha, visual injury, read-out: Plant response rating, Oat, Wild
Procedure, shortened: as §1

[9] = test system: ryegrass, Italian; assay: Test A postemergence; type: in vivo, Lolium multiflorum; settings: Lolium multiflorum, post-emergence, 240 h, postemergence, 10 days, 0 to 100 scale (0 no effect, 100 complete control); for pest or weed control at 125 g/ha: 125 g ai/ha, read-out: Ryegrass, Italian plant response rating; for pest or weed control at 500 g/ha: 500 g ai/ha, visual injury, read-out: Plant response rating, Ryegrass, Italian
Procedure, shortened: as §1

[10] = test system: wheat; assay: Test A postemergence; type: in vivo, Triticum aestivum; settings: Triticum aestivum, post-emergence, 240 h, postemergence, 10 days, 0 to 100 scale (0 no effect, 100 complete control); for plant injury at 125 g/ha: 125 g ai/ha, read-out: Wheat plant response rating; for plant injury at 500 g/ha: 500 g ai/ha, visual injury, read-out: Plant response rating, Wheat
Procedure, shortened: as §1

[11] = test system: galium; assay: Test A postemergence; type: in vivo, Galium aparine; settings: Galium, post-emergence, 240 h, postemergence, 10 days, 0 to 100 scale (0 no effect, 100 complete control); for pest or weed control at 125 g/ha: 125 g ai/ha, read-out: Galium plant response rating; for pest or weed control at 500 g/ha: 500 g ai/ha, visual injury, read-out: Plant response rating, Galium
Procedure, shortened: as §1

[12] = test system: ducksalad; assay: Test B flooded paddy test; type: in vivo, Heteranthera limosa; settings: Heteranthera limosa, 312 h, 250 g ai/ha, Flood, 13 days, 0 to 100 scale (0 no effect, 100 complete control); read-out: Plant response rating, Ducksalad
Procedure, shortened: (§2)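 Species grown to 2-leaf stage; pots flooded 3 cm above soil and compound applied directly to paddy water, depth maintained throughout. After 13 days in greenhouse, plants visually rated against controls on 0–100 scale (0 no effect, 100 complete control); dash means no result.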

[13] = test system: rice; assay: Test B flooded paddy test; type: in vivo, Oryza sativa; settings: Oryza sativa, 312 h; 250 g ai/ha, Flood, 13 days, 0 to 100 scale (0 no effect, 100 complete control); read-out: Plant response rating, Rice
Procedure, shortened: as §2

[14] = test system: sedge, umbrella; assay: Test B flooded paddy test; type: in vivo, Cyperus difformis; settings: Cyperus difformis, 312 h; 250 g ai/ha, Flood, 13 days, 0 to 100 scale (0 no effect, 100 complete control); read-out: Plant response rating, Sedge, Umbrella
Procedure, shortened: as §2

[15] = visual injury after 10 days, 0 to 100 scale, 0 is no effect, 100 is complete control
[16] = 0 to 100 scale (0 no effect, 100 complete control), 10 days

SMILES	pest or weed control at 125 g/ha [1, 15] [%]	pest or weed control at 125 g/ha [2, 15] [%]	pest or weed control at 125 g/ha [3, 15] [%]	pest or weed control at 125 g/ha [4, 15] [%]	plant injury at 125 g/ha [5, 15] [%]	pest or weed control at 125 g/ha [6] [%]	pest or weed control at 500 g/ha [6] [%]	pest or weed control at 125 g/ha [7] [%]	pest or weed control at 500 g/ha [7] [%]	pest or weed control at 125 g/ha [8] [%]	pest or weed control at 500 g/ha [8] [%]	pest or weed control at 125 g/ha [9] [%]	pest or weed control at 500 g/ha [9] [%]	plant injury at 125 g/ha [10] [%]	plant injury at 500 g/ha [10] [%]	pest or weed control at 125 g/ha [11] [%]	pest or weed control at 500 g/ha [11] [%]	pest or weed control at 250 g/ha [12] [%]	plant injury at 250 g/ha [13] [%]	pest or weed control at 250 g/ha [14] [%]	other results
Cc1cccc2c1O[C@@H](C)CN2C(=O)c1cccc(-n2cnn(C)c2=O)c1 [Compound 117, 4-[3-[[(2S)-2,3-Dihydro-2,8-dimethyl-4H-1,4-benzoxazin-4-yl]carbonyl]phenyl]-2,4-dihydro-2-methyl-3H-1,2,4-triazol-3-one]	30	50	0	20	30	50	90	30	70	10	40	30	60	10	40	0	0	0	0	0	pest or weed control at 500 g/ha [1, 15]: 90%; pest or weed control at 500 g/ha [2, 15]: 100%; pest or weed control at 500 g/ha [3, 15]: 60%; pest or weed control at 500 g/ha [4, 15]: 70%; plant injury at 500 g/ha [5, 15]: 70%
CCc1ccc(-n2cnc(C(C)C)n2)cc1C(=O)N1C[C@H](C)Oc2c(Cl)cccc21 [Compound 94, [(2S)-8-Chloro-2,3-dihydro-2-methyl-4H-1,4-benzoxazin-4-yl][2-ethyl-5-[3-(1-methylethyl)-1H-1,2,4-triazol-1-yl]phenyl]methanone]	90	100	90	40	50	60	90	60	90	80	80	50	90	30	70	100	100	70	0	98	pest or weed control at 500 g/ha [1, 16]: 90%; pest or weed control at 500 g/ha [2, 16]: 100%; pest or weed control at 500 g/ha [3, 16]: 100%; pest or weed control at 500 g/ha [4, 16]: 90%; plant injury at 500 g/ha [5, 16]: 100%
